pIC50, pKd: −log10 of the molar value. Values after ≈ are worked out from the molar mass of the structure shown.
Columns and labels:
Complement C5 = Complement C5 (Homo sapiens, UniProt P01031); experiment: Inhibition of C5 complement protein in 2% human serum incubated for 15 mins; format: cell-free
[1] = Equilibrium solubility in pH 6.8 potassium phosphate buffer incubated for 16 hrs by shake flask method; format: physicochemical
[2] = Reduction of intraocular pressure in human at 0.1% administered topically to the eye and measured at 4 hr post-instillation during phase 1 clinical trial by tonometry; format: functional
[3] = Reduction of intraocular pressure in human at 0.4%, OU administered twice daily for 52 weeks and measured every 2 weeks for first month and then every 4 weeks at 2 hr post-instillation by tonometry; format: functional
[4] = Reduction of intraocular pressure in human at 0.4%, OU administered twice daily for 8 weeks cotreated-with-latanoprost and measured every 2 weeks at 2 hrs post-instillation by tonometry; format: functional
[5] = Reduction of intraocular pressure in human at 0.4%, OU administered twice daily for 8 weeks cotreated with timolol and measured every 2 weeks at 2 hrs post-instillation by tonometry; format: functional
[6] = Reduction of intraocular pressure in human at 0.4%, OU administered twice daily for 8 weeks and measured every 4 weeks at 8 hrs post instillation during phase 2 clinical trial by tonometry; format: functional
[7] = Reduction of intraocular pressure in human at 0.4%, OU administered twice daily for 52 weeks and measured every 2 weeks for first month and then every 4 weeks by tonometry; format: functional
[8] = Reduction of intraocular pressure in human at 0.2%, OU administered twice daily for 8 weeks and measured every 4 weeks at 8 hrs post instillation during phase 2 clinical trial by tonometry; format: functional
[9] = Reduction of intraocular pressure in human at 0.1%, OU administered twice daily for 8 weeks and measured every 4 weeks at 8 hrs post instillation during phase 2 clinical trial by tonometry; format: functional
[10] = Reduction of intraocular pressure in human at 0.4%, OU administered twice daily for 8 weeks cotreated with timolol and measured every 2 weeks by tonometry; format: functional
Complement factor D [11] = target: T1, Complement factor D (Homo sapiens, UniProt P00746); experiment: Inhibition of CFD in 50% human whole blood assessed as reduction in alternate complement pathway-mediated MAC formation pre-incubated for 15 mins followed by zymosan suspension addition and measured after 40 mins by ELISA; format: tissue-based
T1 sequence (P00746 whole entry): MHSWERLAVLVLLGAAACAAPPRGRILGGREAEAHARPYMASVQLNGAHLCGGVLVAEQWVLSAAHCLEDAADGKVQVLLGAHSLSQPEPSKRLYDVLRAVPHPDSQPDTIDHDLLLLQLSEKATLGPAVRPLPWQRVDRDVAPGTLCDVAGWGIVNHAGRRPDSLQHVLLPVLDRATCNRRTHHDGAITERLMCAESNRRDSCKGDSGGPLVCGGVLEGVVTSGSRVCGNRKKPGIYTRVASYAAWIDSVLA

[12] = Solubility of compound by NMR analysis; format: physicochemical
[13] = Inhibition of N-terminal His-tagged human KLK7 (37 to 253 residues) Y180R mutant expressed in Escherichia coli BL21(DE3) using Ac-Glu-Phe-Lys-Pro-Ile-Leu-Trp-Arg-Leu-Gly-Cys(PT14)-Glu-NH2 as substrate preincubated for 1 hr followed by substrate addition by fluorescence-lifetime assay
Complement factor D [14] = target: T1, Complement factor D; experiment: Binding affinity to human CFD at 100 uM by WaterLOGSY NMR analysis
[15] = Half life in pig cornea by HPLC analysis; format: ADME, tissue-based, Sus scrofa; settings: in vivo
[16] = Half life in human cornea by HPLC analysis; format: ADME, tissue-based
[17] = Half life in Dutch Belted rabbit cornea by HPLC analysis; format: ADME, tissue-based, Oryctolagus cuniculus; settings: in vivo
[18] = Half life in Beagle dog cornea by HPLC analysis; format: ADME, tissue-based, Canis lupus familiaris; settings: in vivo
[19] = Half life in cynomolgus monkey cornea by HPLC analysis; format: ADME, tissue-based, Macaca fascicularis; settings: in vivo
Complement factor D [20] = target: T1, Complement factor D; experiment: Inhibition of recombinant human CFD catalytic domain (G24 to A253 residues) expressed in Escherichia coli (Rosetta) using Z-Lys-thiobenzyl and 2,4-dinitrobenzenesulfonyl-2,7-[…]-fluorecein as substrate preincubated for 1 hr followed by substrate addition by spectrofluorimetric method
Complement factor D [21] = target: T1, Complement factor D; experiment: Inhibition of CFD in human RBC model of anti-CD55/anti-CD59-induced paroxysmal nocturnal hemoglobinuria assessed as reduction in complement fragment C3 deposition by FACS analysis; format: tissue-based
[22] = target: T2, Nitric oxide synthase, inducible (Mus musculus, UniProt P29477); experiment: Inhibition of LPS/IFN-gamma induced NO-dependent iNOS activity in mouse RAW 264.7 cells incubated for 16 hrs by Griess reagent based assay; format: cell-based, RAW264.7
T2 sequence (P29477 whole entry): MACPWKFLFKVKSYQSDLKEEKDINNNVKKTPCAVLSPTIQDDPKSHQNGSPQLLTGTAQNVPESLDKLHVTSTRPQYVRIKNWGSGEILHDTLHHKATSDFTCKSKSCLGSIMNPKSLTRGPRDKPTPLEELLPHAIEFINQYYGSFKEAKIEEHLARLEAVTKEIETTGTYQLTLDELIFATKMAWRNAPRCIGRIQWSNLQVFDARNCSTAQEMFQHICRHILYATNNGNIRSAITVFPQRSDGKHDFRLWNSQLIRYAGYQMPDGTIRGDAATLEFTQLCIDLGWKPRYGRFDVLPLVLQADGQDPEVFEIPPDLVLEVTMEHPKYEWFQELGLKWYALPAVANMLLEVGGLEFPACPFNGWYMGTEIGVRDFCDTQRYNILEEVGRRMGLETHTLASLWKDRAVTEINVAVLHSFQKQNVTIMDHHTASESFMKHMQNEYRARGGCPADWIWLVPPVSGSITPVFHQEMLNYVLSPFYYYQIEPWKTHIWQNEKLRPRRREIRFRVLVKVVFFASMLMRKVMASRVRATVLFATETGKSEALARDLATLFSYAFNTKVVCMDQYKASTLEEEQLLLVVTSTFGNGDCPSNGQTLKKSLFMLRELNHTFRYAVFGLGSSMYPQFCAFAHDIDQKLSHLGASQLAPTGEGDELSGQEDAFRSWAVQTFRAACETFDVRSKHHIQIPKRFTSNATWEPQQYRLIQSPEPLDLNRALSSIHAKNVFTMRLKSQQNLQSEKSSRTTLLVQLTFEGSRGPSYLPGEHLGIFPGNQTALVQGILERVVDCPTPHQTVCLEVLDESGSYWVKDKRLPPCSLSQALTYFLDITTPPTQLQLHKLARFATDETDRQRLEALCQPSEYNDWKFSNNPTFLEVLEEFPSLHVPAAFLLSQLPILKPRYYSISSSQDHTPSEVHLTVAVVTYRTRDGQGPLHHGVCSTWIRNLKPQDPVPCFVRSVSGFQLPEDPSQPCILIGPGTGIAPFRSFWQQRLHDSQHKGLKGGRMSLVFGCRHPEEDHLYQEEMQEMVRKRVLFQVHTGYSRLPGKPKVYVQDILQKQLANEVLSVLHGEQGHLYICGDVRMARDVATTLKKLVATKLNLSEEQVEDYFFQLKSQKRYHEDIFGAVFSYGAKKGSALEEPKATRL

[23] = Reduction of intraocular pressure in human at 0.024%, OU administered once daily and measured at 1 year by tonometry; format: functional; settings: 8760 h
[24] = Reduction of intraocular pressure in human at 0.024%, OU administered once daily and measured at 4 pm time point after 3 months by tonometry; format: functional; settings: 2190 h
[25] = Reduction of intraocular pressure in human at 0.024%, OU administered once daily and measured at 12 pm time point after 3 months by tonometry; format: functional; settings: 2190 h
[26] = Reduction of intraocular pressure in human at 0.024%, OU administered once daily and measured at 8 am time point after 3 months by tonometry; format: functional; settings: 2190 h
[27] = Reduction of intraocular pressure in human at 0.024%, OU administered once daily and measured at 4 pm time point after 6 weeks by tonometry; format: functional
[28] = Reduction of intraocular pressure in human at 0.024%, OU administered once daily and measured at 12 pm time point after 6 weeks by tonometry; format: functional
[29] = Reduction of intraocular pressure in human at 0.024%, OU administered once daily and measured at 8 am time point after 6 weeks by tonometry; format: functional
[30] = Reduction of intraocular pressure in human at 0.024%, OU administered once daily and measured at 4 pm time point after 2 weeks by tonometry; format: functional
[31] = Reduction of intraocular pressure in human at 0.024%, OU administered once daily and measured at 12 pm time point after 2 weeks by tonometry; format: functional
[32] = Reduction of intraocular pressure in human at 0.024%, OU administered once daily and measured at 8 am time point after 2 weeks by tonometry; format: functional
[33] = Reduction of intraocular pressure in human at 0.024% administered topically to eye once daily for 4 weeks and measured for 8 hrs during nocturnal/sleep period by tonometry; format: functional
[34] = Reduction of intraocular pressure in human at 0.024% administered topically to eye once daily for 4 weeks and measured for 8 hrs during diurnal/wake period by tonometry; format: functional
[35] = Reduction of intraocular pressure in human at 0.024% administered topically to eye once daily and measured after 28 day during phase2 clinical trial by tonometry; format: functional
[36] = Reduction of intraocular pressure in human at 0.024% administered topically to eye once daily and measured after 14 day during phase2 clinical trial by tonometry; format: functional
[37] = Reduction of intraocular pressure in human at 0.024% administered topically to eye once daily and measured after 7 day during phase2 clinical trial by tonometry; format: functional
[38] = Reduction of intraocular pressure in human at 0.024%, OU administered to fellow-eye once daily for 14 days and measured for 24 hrs on day 14 by tonometry; format: functional; settings: time 14 day
[39] = Reduction of intraocular pressure in human at 0.024%, OU administered once daily for 14 days and measured for 24 hrs on day 14 by tonometry; format: functional; settings: time 14 day
[40] = Reduction of intraocular pressure in human at 0.024%, OU administered once daily and measured at 4 weeks by tonometry; format: functional
Rattus norvegicus [41] = experiment: Neuroprotective activity in Wistar rat model of streptozotocin-induced diabetic retinopathy assessed as decrease in retinal ganglion cells at 5 mg/kg, po dosed until 2 months starting 7 days prior to streptozotocin injection (reference value: 44%); format: functional; design: scale not given: the % may be the effect or the level left; settings: 1460 h
Rattus norvegicus [42] = experiment: Neuroprotective activity in Wistar rat model of streptozotocin-induced diabetic retinopathy assessed as decrease in retinal ganglion cells at 1 mg/kg, po dosed until 2 months starting 7 days prior to streptozotocin injection (reference value: 44%); format: functional; design: scale not given: the % may be the effect or the level left; settings: 1460 h

Complement C5, sequence (P01031 19-673 limits assumed): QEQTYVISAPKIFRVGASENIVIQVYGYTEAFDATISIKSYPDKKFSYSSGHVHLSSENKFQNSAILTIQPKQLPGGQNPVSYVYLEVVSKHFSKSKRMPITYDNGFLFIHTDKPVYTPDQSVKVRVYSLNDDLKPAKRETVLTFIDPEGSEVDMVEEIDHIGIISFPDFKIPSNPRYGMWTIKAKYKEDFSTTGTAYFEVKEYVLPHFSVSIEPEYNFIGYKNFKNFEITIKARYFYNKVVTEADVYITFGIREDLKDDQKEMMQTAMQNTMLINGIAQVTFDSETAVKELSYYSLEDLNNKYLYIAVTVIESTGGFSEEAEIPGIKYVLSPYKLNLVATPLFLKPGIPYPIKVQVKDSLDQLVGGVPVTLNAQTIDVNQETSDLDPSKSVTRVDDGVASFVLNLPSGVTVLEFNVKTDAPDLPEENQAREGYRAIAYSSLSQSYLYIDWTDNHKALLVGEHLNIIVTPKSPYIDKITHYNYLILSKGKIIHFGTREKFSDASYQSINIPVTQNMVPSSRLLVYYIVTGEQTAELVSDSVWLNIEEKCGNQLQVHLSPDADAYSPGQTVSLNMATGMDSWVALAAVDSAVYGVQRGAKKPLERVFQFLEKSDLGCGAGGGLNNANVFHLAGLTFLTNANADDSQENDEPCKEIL
Complement C5, sequence (P01031 678-1676 limits assumed): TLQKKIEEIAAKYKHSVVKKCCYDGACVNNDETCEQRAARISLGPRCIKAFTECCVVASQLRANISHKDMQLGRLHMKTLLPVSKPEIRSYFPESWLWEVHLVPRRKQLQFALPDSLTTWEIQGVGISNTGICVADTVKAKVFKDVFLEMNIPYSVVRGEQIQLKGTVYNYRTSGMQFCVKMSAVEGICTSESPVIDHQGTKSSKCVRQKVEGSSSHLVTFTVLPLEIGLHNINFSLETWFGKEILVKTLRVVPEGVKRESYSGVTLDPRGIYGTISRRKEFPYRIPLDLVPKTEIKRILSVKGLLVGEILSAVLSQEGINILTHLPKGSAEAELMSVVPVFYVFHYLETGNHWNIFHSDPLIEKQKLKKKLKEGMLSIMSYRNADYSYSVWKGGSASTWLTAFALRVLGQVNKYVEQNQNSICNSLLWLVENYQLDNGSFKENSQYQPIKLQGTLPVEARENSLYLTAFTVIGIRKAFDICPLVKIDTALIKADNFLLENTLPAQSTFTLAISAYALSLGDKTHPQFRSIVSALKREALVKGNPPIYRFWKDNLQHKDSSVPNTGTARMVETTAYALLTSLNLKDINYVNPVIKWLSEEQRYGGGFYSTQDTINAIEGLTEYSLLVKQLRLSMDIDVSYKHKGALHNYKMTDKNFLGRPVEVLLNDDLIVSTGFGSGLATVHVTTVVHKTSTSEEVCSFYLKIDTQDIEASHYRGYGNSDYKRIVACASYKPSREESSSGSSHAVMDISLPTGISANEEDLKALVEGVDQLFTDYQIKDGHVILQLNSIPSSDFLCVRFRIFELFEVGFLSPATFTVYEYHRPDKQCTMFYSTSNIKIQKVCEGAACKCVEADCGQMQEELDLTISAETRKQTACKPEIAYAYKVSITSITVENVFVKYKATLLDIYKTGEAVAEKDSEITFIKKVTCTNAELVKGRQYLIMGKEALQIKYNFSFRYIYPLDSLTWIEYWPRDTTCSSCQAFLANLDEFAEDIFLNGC

CCCCCCOc1cc(NC(=O)N[C@@H](C)c2ccccc2)ccc1OC
pIC50 (Complement C5): 6.68
solubility thermodynamic at 16 h [1]: < 4 µM

COc1ccc(NC(=O)N[C@@H](C)c2ccccc2)cc1OCCCC(C)C
pIC50 (Complement C5): 6.36
solubility thermodynamic at 16 h [1]: < 4 µM

CC(N)c1ccc(C(=O)Nc2ccnc3[nH]ccc23)cc1 (configuration not stated)
Activity [2]: 3 mmHg

C[C@H]1CNCCCN1S(=O)(=O)c1cccc2cncc(F)c12
Activity [3]: -3.7 mmHg
Activity [4]: 1.4 mmHg
Activity [5]: 1.6 mmHg
Activity [6]: -3.1 mmHg
Activity [7]: -2.6 mmHg
Activity [8]: -2.7 mmHg
Activity [9]: -3.2 mmHg
Activity [10]: 0.9 mmHg

NC(=O)c1nn(CC(=O)N2[C@@H]3C[C@@H]3C[C@H]2C(=O)Nc2cccc(Br)n2)c2ncccc12
pIC50 (Complement factor D [11]): 7.30

NC(=O)c1cc2cc(OCc3cccc(C(=O)O)c3)ccc2[nH]1
solubility [12]: 2000 µM (≈ 621 µg/mL)

COC(=O)c1ccccc1CNC(=O)N1CCC[C@H]1C(=O)Nc1cccc(OC(F)(F)F)c1
pIC50 [13]: 5.05

NC(=O)c1cc2cc(OCc3ccccc3)ccc2[nH]1
solubility [12]: 30 µM (≈ 7.99 µg/mL)
pKd (Complement factor D [14]): < 4.52

Cc1ccc(C(=O)OCc2ccc([C@@H](CN)C(=O)Nc3ccc4cnccc4c3)cc2)c(C)c1
t1/2 [15]: 2.6 h
t1/2 [16]: 2.92 h
t1/2 [17]: 2.33 h
t1/2 [18]: 1.63 h
t1/2 [19]: 1.82 h

COc1ccc(CCNC(=O)[C@@H]2CCCN2C(=O)NCc2cccc3ccccc23)cc1
pIC50 (Complement factor D [20]): < 4.52
pIC50 [13]: 6.15

C[C@H](NC(=O)[C@@H]1C[C@H]2C[C@H]2N1C(=O)Cn1nc(C(N)=O)c2cccnc21)c1cccc(Cl)c1F
pIC50 (Complement factor D [21]): 7.15
pIC50 (Complement factor D [11]): 6.85

COc1cc(C(=O)O)c(NC(=O)N[C@@H](C)c2ccccc2)cc1OCCCC(C)C
pIC50 (Complement C5): 6.21
solubility thermodynamic at 16 h [1]: 728 µM (≈ 302 µg/mL)

O=C(CCC/C=C\C[C@@H]1[C@@H](CC[C@@H](O)CCc2ccccc2)[C@H](O)C[C@@H]1O)OC(CO[N+](=O)[O-])CO[N+](=O)[O-]
pIC50 [22]: 4.26

COc1ccc(NC(=O)N[C@@H](C)c2ccccc2OC)cc1OCCCC(C)C
pIC50 (Complement C5): ≥ 8.30
solubility thermodynamic at 16 h [1]: ≤ 4 µM

O=C(CCC/C=C\C[C@@H]1[C@@H](CC[C@H](O)CCc2ccccc2)[C@H](O)C[C@@H]1O)OCCCCO[N+](=O)[O-]
Activity [23]: 5.3 mmHg
Activity [24]: 1.3 mmHg
Activity [25]: 1.3 mmHg
Activity [26]: 0.9 mmHg
Activity [27]: 1 mmHg
Activity [28]: 0.8 mmHg
Activity [29]: 0.9 mmHg
Activity [30]: 0.7 mmHg
Activity [31]: 0.8 mmHg
Activity [32]: 0.4 mmHg
Activity [33]: 2.3 mmHg
Activity [34]: 1.1 mmHg
Activity [35]: 9 mmHg
Activity [36]: 8.9 mmHg
Activity [37]: 8.3 mmHg
Activity [38]: 3.5 mmHg
Activity [39]: 3.6 mmHg
Activity [40]: 4.3 mmHg

OCCc1ccc(O)c(O)c1 [HYDROXYTYROSOL]
Activity (Rattus norvegicus [41]): 9%
Activity (Rattus norvegicus [42]): 34%

Source: ChEMBL document CHEMBL4665679, “Ocular Disease Therapeutics: Design and Delivery of Drugs for Diseases of the Eye” (J Med Chem, 2020)
